Experimental findings from patent US20160229835A1, “NOVEL PYRIDYLOXYACETYL TETRAHYDROISOQUINOLINE COMPOUNDS USEFUL AS NAMPT INHIBITORS” (ELI LILLY AND COMPANY, priority 2013, published 2016) are described below.

Assay [1] deals with NAMPT-mediated NAD+/NMN formation in A2780 tumor cells. As to the kind of experiment: Assay for NAD+/NMN Levels in A2780 Cells. The following applies: Homo sapiens, A2780, 24 h, 24 hours treatment, averaged. Format: cell-based. The procedure:
A2780 (the NCI-DCTD Tumor repository) tumor cells, an ovarian cancer cell line, are cultured in RPMI 1640 (SH30255.01, Hyclone) supplemented with 10% FBS. […] FK866 (100 nM) is also included as a positive control for maximum inhibition (100%). Each compound is tested 1-4 times in this assay.
To assess NAD^+/NMN levels in the cell, A2780 cells grown in the above referenced 96-well plates are lysed with RIPA buffer (Pierce) followed by addition of 50 μL of 0.2 N HCl. The resulting cell lysates are incubated at 60° C. for 10 minutes and neutralized with 50 μL of 0.2 N NaOH. After centrifugation at 2000×g for 15 minutes, the supernatants (50 μL) are collected. The NAD^+/NMN assays are described by Putt and Hergenrother (Putt, K. S, and Hergenrother, P. J., An enzymatic assay for poly(ADP-ribose) polymerase-1 (PARP-1) via the chemical quantitation of NAD^+: application to the high-throughput screening of small molecules as potential inhibitors. Analytical Biochemistry, 2004, 326, 78-86) with modifications. The resulting lysates are mixed with 20 μL of 0.2 N KOH and 20 μL of 20% acetophenone, and incubated at 90° C. for 10 minutes followed by addition of 90 μL of formic acid. After incubation at 90° C. for 10 minutes, the resulting preparations are measured for their fluorescence at the excitation and emission wavelength of 360 and 450 nm, respectively as described by Putt and Hergenrother (2004).

The subject of a further assay is A2780 cells. Description: A2780 Proliferation Assay ±NAM (Nicotinamide). It is filed as cell-based. Conditions: Homo sapiens, A2780, 72 h, absence of NAM, read-out: IC50 (proliferation of A2780 cells in the absence of NAM). The protocol:
The purpose of this assay is to measure the ability of a compound to inhibit proliferation of A2780 cells (the NCI-DCTD Tumor repository) dependent on the NAMPT-mediated NAD^+ formation in the presence or absence of higher concentrations of NAM (10 mM) in vitro. The A2780 cell proliferation assay uses assay-ready frozen cells. To prepare assay-ready frozen A2780 cells, A2780 cells, an ovarian cancer cell line, are cultured in growth media containing RPMI 1640 (Gibco 30-2001) supplemented with 10% FBS, in T-150 flasks for 3-4 days. Cells are then treated with 4 mL of 0.25% (v/v) trypsin for 1 minute (Hyclone SH30042). Trypsin-treated cells are then diluted with 10 mL of growth media, and the cell slurry is gently mixed and then decanted to a centrifuge tube. Cells are counted and then pelleted by centrifugation at 1400 rpm for 5 minutes. After centrifugation the supernatant is removed and the cell pellets are re-suspended in GIBCO® RECOVERY™ Cell Culture Freezing Medium (Invitrogen 12648-010) at 2-5×10^6 cells/mL and then aliquoted at 1 mL volumes into cryovials. Cryovials are stored initially at −80° C. for 16 hours, and then transferred to liquid nitrogen for long term storage.
One day before the planned initiation of compound treatment portion of the assay, one vial of assay ready frozen cells is thawed, and the cells are washed with 50 mL of growth medium. Cells are counted and then diluted to 2.8×10^4 cells/mL and then plated at a rate of 2500 cells/well (90 μL per well) to BD Poly-D-Lysine, 96 well black plates (BD Biocoat 35-4640). Plates are then covered and incubated overnight under 5% CO2 at 37° C. The next day in a separate plate (V bottom Nunc 249946), a ten-point compound dilution series for each compound is prepared in growth media containing 2% DMSO (v/v, 0.2% final) with or without 100 mM NAM (10 mM final). Then 10 μL of compounds after a ten-point series dilution from either 2 or 0.1 μM (depending potency of each compound) to 50 pM or 5 pM (final) are added to the wells of the cell plates. Cell plates are covered and incubated for 72 hours under 5% CO2 at 37° C.
On the day of the viability assessment, one vial of GF-AFC substrate (CELL TITER-FLUOR™ Cell Viability Assay Kit, Promega G6081) is vortexed and the substrate is transferred to one vial of thawed CELL TITER-FLUOR™ Assay Buffer. The resulting CELL TITER-FLUOR™ reagent is then vortexed well to thoroughly dissolve the substrate. The CELL TITER-FLUOR™ reagent is then diluted (1:2) in growth medium and 50 μL of diluted CELL TITER-FLUOR™ reagent is added to each well of the cell plate. The cell plate is covered and incubated under 5% CO2 at 37° C. for 1-3 hours. Finally the cell plates are removed from the incubator and the well fluorescence is measured on an Envision® Multilabel Reader (Perkin Elmer, λeX 355/λem 495). Fluorescence from compound treated wells is compared to the no cell and no compound treatment control wells to calculate percent inhibition. The percent inhibition and ten-point compound concentration data is fit to a four-parameter logistic equation using ACTIVITYBASE 4.0 Equation 205. Each compound is tested 2-4 times in this assay.

Regarding `CC(C)(O)CC(=O)Nc1ccc2c(c1)CCN(C(=O)COc1cccnc1)C2` [Example 15, 3-Hydroxy-3-methyl-N-{2-[(pyridin-3-yloxy)acetyl]-1,2,3,4-tetrahydroisoquinolin-6-yl}butanamide], the IC50 in assay [1] is not above 195 nM; in the assay with A2780 cells, less than 677 nM.

As to `O=C(COc1cccnc1)N1CCc2cc(NS(=O)(=O)CC3CC3)ccc2C1` [Example 6, 1-Cyclopropyl-N-{2-[(pyridin-3-yloxy)acetyl]-1,2,3,4-tetrahydroisoquinolin-6-yl}methanesulfonamide], the IC50 in assay [1] is not above 195 nM; in the assay with A2780 cells, less than 677 nM.

`CN1CCC(S(=O)(=O)Nc2ccc3c(c2)CCN(C(=O)COc2cccnc2)C3)CC1` [Example 9, 1-Methyl-N-{2-[(pyridin-3-yloxy)acetyl]-1,2,3,4-tetrahydroisoquinolin-6-yl}piperidine-4-sulfonamide]: the values for the IC50 (in assay [1]; in the assay with A2780 cells) were not above 195 nM and less than 677 nM, respectively.

Regarding `CC(c1ccc2c(c1)CCN(C(=O)COc1cccnc1)C2)N1CCN(C(=O)C2CCOCC2)CC1` (single isomer, unassigned; isomer 2) [Example 20, 2-(3-Pyridyloxy)-1-[6-[1-[4-(tetrahydropyran-4-carbonyl)piperazin-1-yl]ethyl]-3,4-dihydro-1H-isoquinolin-2-yl]ethanone (isomer 2)], the IC50 in assay [1] was not above 195 nM; with A2780 cells, less than 677 nM.

Take `CC(C)OCCS(=O)(=O)Nc1ccc2c(c1)CCN(C(=O)COc1cccnc1)C2` [Example 7, 2-Isopropoxy-N-[2-[2-(3-pyridyloxy)acetyl]-3,4-dihydro-1H-isoquinolin-6-yl]ethanesulfonamide]: the values for the IC50 (in assay [1]; in the assay with A2780 cells) were not above 195 nM and less than 677 nM, respectively.

Regarding `CC(C)(O)CC(=O)N1CCN(Cc2ccc3c(c2)CCN(C(=O)COc2cccnc2)C3)CC1` [Example 18, 3-Hydroxy-3-methyl-1-[4-({2-[(pyridin-3-yloxy)acetyl]-1,2,3,4-tetrahydroisoquinolin-6-yl}methyl)piperazin-1-yl]butan-1-one], the figures for the IC50 (in assay [1]; in the assay on A2780 cells) were not above 195 nM and less than 677 nM, respectively.

Consider `O=C(CC1CCCCO1)Nc1ccc2c(c1)CCN(C(=O)COc1cccnc1)C2` (single isomer, unassigned; isomer 2) [Example 13, N-[2-[2-(3-Pyridyloxy)acetyl]-3,4-dihydro-1H-isoquinolin-6-yl]-2-tetrahydropyran-2-yl-acetamide (isomer 2)], for which the IC50 in assay [1] was not above 195 nM; in the assay with A2780 cells it was less than 677 nM.

On to `O=C(CC1CCOCC1)N1CCN(Cc2ccc3c(c2)CCN(C(=O)COc2cccnc2)C3)CC1` [Example 19, 2-(Pyridin-3-yloxy)-1-[6-{[4-(tetrahydro-2H-pyran-4-ylacetyl)piperazin-1-yl]methyl}-3,4-dihydroisoquinolin-2(1H)-yl]ethanone], for which the IC50 in assay [1] is not above 195 nM; with A2780 cells, less than 677 nM.

In the case of `CC(O)(CC(=O)Nc1ccc2c(c1)CCN(C(=O)COc1cccnc1)C2)C(F)(F)F` (stereo not drawn) [Example 12, 4,4,4-Trifluoro-3-hydroxy-3-methyl-N-[2-[2-(3-pyridyloxy)acetyl]-3,4-dihydro-1H-isoquinlin-6-yl]butanamide], the IC50 is not above 195 nM in assay [1] and less than 677 nM in the assay with A2780 cells.

For the compound `O=C(CN1CCOCC1)N1CCN(Cc2ccc3c(c2)CCN(C(=O)COc2cccnc2)C3)CC1` [Example 17, 2-(Morpholin-4-yl)-1-[4-({2-[(pyridin-3-yloxy)acetyl]-1,2,3,4-tetrahydroisoquinolin-6-yl}methyl)piperazin-1-yl]ethanone], the values for the IC50 (in assay [1]; in the assay on A2780 cells) were not above 195 nM and less than 677 nM, respectively.

Regarding `CC(C)(C)CC(=O)Nc1ccc2c(c1)CCN(C(=O)COc1cccnc1)C2` [Example 14, 3,3-Dimethyl-N-{2-[(pyridin-3-yloxy)acetyl]-1,2,3,4-tetrahydroisoquinolin-6-yl}butanamide], the IC50 was not above 195 nM in assay [1] and less than 677 nM in the assay on A2780 cells.

Turning to `O=C(COc1cccnc1)N1CCc2cc(NS(=O)(=O)c3ccccn3)ccc2C1` [Example 3, N-{2-[(Pyridin-3-yloxy)acetyl]-1,2,3,4-tetrahydroisoquinolin-6-yl}pyridine-2-sulfonamide], the IC50 in assay [1] was not above 195 nM; with A2780 cells, less than 677 nM.

Regarding `CCC(C)(O)CC(=O)Nc1ccc2c(c1)CCN(C(=O)COc1cccnc1)C2` (stereo not drawn) [Example 11, 3-Hydroxy-3-methyl-N-[2-[2-(3-pyridyloxy)acetyl]-3,4-dihydro-1H-isoquinolin-6-yl]pentanamide], the figures for the IC50 (in assay [1]; with A2780 cells) were not above 195 nM and less than 677 nM, respectively.

For the compound `O=C(COc1cccnc1)N1CCc2cc(NS(=O)(=O)C3CCN(C4COC4)CC3)ccc2C1` [Example 8, 1-(Oxetan-3-yl)-N-[2-[2-(3-pyridyloxy)acetyl]-3,4-dihydro-1H-isoquinolin-6-yl]piperidine-4-sulfonamide], the IC50 in assay [1] is not above 195 nM; in the assay on A2780 cells, less than 677 nM.

On to `O=C(COc1cccnc1)N1CCc2cc(NS(=O)(=O)C3CCOCC3)ccc2C1` [Example 4, N-{2-[(Pyridin-3-yloxy)acetyl]-1,2,3,4-tetrahydroisoquinolin-6-yl}tetrahydro-2H-pyran-4-sulfonamide], for which the IC50 is not above 195 nM in assay [1] and less than 677 nM in the assay with A2780 cells.

`O=C(COc1cccnc1)N1CCc2cc(NS(=O)(=O)C3CCN(C(=O)C4CCOCC4)CC3)ccc2C1` [Example 10, N-[2-[2-(3-Pyridyloxy)acetyl]-3,4-dihydro-1H-isoquinolin-6-yl]-1-(tetrahydropyran-4-carbonyl)piperidine-4-sulfonamide]: the IC50 in assay [1] was not above 195 nM; in the assay on A2780 cells it was less than 677 nM.

`O=C(COc1cccnc1)N1CCc2cc(NS(=O)(=O)CCC(F)(F)F)ccc2C1` [Example 5, 3,3,3-Trifluoro-N-{2-[(pyridin-3-yloxy)acetyl]-1,2,3,4-tetrahydroisoquinolin-6-yl}propane-1-sulfonamide]: the IC50 in assay [1] is not above 195 nM; in the assay on A2780 cells, less than 677 nM.

For `O=C(COc1cccnc1)N1CCc2cc(CN3CCN(C(=O)C4CCOCC4)CC3)ccc2C1` [Example 16, 2-(Pyridin-3-yloxy)-1-[6-{[4-(tetrahydro-2H-pyran-4-ylcarbonyl)piperazin-1-yl]methyl}-3,4-dihydroisoquinolin-2(1H)-yl]ethanone], the IC50 in assay [1] was not above 195 nM; in the assay with A2780 cells it was less than 677 nM.
